Reference: publication PMC5428509, “Irreversible inhibition of BTK kinase by a novel highly selective inhibitor CHMFL-BTK-11 suppresses inflammatory response in rheumatoid arthritis model” (Scientific Reports, 2017)

What was measured:
Experiment in all cases: biochemical
Set-up in all cases: KinomeScan competition binding panel (DiscoveRx), percent of control at 1 uM
Conditions in all cases: read-out: Percent Control
FGR = FGR (Homo sapiens, UniProt P09769)
Outline: (§1)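 KinomeScan technology used to profile binding across a panel of 456 kinases and mutants.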

PYK2 = target: T1, PYK2 (Homo sapiens, UniProt Q14289)
T1 construct: gene PTK2B
T1 sequence (Q14289 whole entry): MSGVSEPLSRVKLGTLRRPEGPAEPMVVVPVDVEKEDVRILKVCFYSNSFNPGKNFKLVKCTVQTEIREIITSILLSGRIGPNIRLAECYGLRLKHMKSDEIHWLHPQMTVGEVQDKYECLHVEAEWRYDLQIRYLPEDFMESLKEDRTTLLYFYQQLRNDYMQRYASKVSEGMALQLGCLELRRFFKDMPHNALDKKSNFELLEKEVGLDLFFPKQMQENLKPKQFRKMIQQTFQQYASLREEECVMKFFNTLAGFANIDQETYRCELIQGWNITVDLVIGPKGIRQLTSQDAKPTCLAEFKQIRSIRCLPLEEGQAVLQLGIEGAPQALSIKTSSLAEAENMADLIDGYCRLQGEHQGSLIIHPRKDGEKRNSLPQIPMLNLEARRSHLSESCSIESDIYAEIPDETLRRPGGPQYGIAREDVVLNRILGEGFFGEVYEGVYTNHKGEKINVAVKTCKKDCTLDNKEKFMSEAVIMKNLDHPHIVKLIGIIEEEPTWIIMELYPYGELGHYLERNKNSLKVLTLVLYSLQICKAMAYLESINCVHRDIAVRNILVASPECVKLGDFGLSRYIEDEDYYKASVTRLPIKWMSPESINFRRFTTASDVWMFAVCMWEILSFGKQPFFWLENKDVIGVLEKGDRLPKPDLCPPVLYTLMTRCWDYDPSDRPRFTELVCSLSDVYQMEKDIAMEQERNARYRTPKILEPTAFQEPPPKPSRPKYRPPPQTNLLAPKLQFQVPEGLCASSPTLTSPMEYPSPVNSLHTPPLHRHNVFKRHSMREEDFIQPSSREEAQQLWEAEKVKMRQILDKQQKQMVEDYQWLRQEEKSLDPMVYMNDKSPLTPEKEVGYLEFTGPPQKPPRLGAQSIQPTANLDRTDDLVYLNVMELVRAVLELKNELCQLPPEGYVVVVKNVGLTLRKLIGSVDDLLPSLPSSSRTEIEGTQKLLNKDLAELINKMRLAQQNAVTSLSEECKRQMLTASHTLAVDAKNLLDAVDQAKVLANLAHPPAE
Outline: as §1

MAP3K4 = MAP3K4 (Homo sapiens, UniProt Q9Y6R4)
Outline: as §1

[1] = target: T2, RSK4(Kin.Dom.2-C-terminal) (Homo sapiens, UniProt Q9UK32)
T2 construct: gene RPS6KA6; Kin.Dom.2-C-terminal
Outline: as §1

CDK9 = CDK9 (Homo sapiens, UniProt P50750)
Outline: as §1

[2] = target: T3, RSK3(Kin.Dom.1-N-terminal) (Homo sapiens, UniProt Q15349)
T3 construct: gene RPS6KA2; Kin.Dom.1-N-terminal
Outline: as §1

MST2 = target: T4, MST2 (Homo sapiens, UniProt Q13188)
T4 construct: gene STK3
Outline: as §1

CSNK1G2 = CSNK1G2 (Homo sapiens, UniProt P78368)
Chain of CSNK1G2 (P78368 whole entry): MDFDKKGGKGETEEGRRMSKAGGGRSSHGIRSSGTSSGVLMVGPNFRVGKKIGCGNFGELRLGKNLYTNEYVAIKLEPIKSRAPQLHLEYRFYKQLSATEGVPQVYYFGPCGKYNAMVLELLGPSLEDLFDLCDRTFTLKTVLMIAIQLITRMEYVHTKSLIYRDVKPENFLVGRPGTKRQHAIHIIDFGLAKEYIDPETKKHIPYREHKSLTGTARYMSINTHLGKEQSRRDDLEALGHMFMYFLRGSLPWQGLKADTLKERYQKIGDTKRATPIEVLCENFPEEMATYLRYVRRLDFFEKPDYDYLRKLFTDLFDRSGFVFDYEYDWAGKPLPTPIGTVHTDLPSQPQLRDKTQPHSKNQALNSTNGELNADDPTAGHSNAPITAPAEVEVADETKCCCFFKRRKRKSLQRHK
Outline: as §1

NEK1 = NEK1 (Homo sapiens, UniProt Q96PY6)
Outline: as §1

ROS1 = ROS1 (Homo sapiens, UniProt P08922)
Outline: as §1

[3] = target: T5, RSK2(Kin.Dom.1-N-terminal) (Homo sapiens, UniProt P51812)
T5 construct: gene RPS6KA3; Kin.Dom.1-N-terminal
T5 sequence (P51812 whole entry): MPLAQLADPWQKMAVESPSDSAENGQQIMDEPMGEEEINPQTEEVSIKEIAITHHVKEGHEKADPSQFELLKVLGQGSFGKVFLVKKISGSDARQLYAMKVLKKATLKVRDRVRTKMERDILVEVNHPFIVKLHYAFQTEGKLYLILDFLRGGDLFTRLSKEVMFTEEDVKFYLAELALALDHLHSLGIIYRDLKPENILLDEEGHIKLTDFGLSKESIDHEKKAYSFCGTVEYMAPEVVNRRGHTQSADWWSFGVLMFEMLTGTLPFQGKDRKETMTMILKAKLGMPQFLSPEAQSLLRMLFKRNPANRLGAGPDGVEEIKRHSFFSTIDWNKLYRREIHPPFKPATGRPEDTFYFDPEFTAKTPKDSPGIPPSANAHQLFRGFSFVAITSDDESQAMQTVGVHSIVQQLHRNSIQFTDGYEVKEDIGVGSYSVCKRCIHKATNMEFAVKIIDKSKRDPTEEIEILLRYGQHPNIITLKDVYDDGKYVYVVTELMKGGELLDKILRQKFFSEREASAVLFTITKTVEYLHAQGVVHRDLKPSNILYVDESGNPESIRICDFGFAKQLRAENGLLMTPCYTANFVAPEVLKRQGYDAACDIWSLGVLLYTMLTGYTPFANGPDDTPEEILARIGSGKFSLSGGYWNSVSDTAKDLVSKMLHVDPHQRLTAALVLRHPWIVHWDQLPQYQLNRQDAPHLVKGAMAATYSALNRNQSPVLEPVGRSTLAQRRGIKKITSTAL
Outline: as §1

MST1 = target: T6, MST1 (Homo sapiens, UniProt Q13043)
T6 construct: gene STK4
Outline: as §1

SNARK = target: T7, SNARK (Homo sapiens, UniProt Q9H093)
T7 construct: gene NUAK2
Outline: as §1

PLK4 = PLK4 (Homo sapiens, UniProt O00444)
Outline: as §1

CAMK1 = CAMK1 (Homo sapiens, UniProt Q14012)
Outline: as §1

EPHA2 = EPHA2 (Homo sapiens, UniProt P29317)
Chain of EPHA2 (P29317 whole entry): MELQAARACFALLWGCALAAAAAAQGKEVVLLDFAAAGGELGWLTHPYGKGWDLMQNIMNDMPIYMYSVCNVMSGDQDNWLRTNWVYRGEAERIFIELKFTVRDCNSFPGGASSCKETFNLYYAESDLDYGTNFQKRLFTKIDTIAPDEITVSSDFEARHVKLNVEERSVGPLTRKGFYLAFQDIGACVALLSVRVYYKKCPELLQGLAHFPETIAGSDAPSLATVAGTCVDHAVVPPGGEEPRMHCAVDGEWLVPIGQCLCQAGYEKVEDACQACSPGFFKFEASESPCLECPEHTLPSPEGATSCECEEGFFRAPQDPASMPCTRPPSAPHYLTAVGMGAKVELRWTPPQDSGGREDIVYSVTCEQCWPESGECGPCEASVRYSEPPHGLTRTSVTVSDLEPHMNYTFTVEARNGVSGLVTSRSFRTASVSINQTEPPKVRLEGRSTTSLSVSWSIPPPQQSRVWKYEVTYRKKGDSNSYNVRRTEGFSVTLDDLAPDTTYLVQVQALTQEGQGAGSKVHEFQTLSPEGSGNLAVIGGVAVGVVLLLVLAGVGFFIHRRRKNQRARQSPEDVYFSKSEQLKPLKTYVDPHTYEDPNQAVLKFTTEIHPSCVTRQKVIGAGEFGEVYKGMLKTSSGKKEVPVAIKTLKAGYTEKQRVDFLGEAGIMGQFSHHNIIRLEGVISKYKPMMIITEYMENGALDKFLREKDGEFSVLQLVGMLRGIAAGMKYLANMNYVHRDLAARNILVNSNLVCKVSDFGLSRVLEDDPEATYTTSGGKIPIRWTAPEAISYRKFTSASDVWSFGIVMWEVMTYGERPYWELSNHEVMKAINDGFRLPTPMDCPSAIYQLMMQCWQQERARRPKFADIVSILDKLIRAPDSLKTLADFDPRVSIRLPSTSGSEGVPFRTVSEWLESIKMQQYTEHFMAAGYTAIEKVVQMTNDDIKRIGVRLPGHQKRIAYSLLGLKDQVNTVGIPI
Outline: as §1

BMPR1A = BMPR1A (Homo sapiens, UniProt P36894)
Outline: as §1

ROCK1 = ROCK1 (Homo sapiens, UniProt Q13464)
Chain of ROCK1 (Q13464 whole entry): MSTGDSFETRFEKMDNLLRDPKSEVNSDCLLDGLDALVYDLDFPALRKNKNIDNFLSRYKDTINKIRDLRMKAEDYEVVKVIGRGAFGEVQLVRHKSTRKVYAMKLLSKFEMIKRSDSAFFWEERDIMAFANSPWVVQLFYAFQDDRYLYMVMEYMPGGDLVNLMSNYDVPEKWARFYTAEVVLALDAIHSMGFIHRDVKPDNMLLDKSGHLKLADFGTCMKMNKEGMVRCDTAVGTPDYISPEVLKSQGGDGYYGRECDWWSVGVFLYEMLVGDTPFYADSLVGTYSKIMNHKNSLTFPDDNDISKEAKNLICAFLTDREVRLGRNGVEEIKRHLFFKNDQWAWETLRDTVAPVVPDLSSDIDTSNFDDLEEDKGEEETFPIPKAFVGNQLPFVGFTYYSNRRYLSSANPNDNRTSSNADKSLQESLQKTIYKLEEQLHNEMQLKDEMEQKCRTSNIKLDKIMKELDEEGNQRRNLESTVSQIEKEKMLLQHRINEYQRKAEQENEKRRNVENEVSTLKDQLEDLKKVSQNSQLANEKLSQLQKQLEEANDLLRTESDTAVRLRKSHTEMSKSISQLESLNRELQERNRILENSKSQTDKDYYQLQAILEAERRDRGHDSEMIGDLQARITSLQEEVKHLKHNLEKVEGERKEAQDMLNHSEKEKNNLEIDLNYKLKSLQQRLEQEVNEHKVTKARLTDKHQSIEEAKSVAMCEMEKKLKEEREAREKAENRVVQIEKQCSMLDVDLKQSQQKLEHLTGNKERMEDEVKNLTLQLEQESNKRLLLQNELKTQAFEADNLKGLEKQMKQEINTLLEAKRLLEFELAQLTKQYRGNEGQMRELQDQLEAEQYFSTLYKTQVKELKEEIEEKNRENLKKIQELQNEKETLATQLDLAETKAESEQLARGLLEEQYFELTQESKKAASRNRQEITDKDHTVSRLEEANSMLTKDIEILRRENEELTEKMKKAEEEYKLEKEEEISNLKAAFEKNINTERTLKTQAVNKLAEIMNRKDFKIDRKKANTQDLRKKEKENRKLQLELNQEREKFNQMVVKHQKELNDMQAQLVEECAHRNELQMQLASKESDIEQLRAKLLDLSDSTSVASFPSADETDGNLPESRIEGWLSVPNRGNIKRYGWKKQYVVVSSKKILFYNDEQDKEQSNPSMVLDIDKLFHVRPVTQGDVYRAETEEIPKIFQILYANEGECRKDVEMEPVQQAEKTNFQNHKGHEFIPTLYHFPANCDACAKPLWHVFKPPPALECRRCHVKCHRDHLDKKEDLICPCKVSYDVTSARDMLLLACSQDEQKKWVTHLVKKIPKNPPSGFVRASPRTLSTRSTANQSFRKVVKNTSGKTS
Outline: as §1

PRKD3 = PRKD3 (Homo sapiens, UniProt O94806)
Outline: as §1

EPHB2 = EPHB2 (Homo sapiens, UniProt P29323)
Outline: as §1

CTK = target: T8, CTK (Homo sapiens, UniProt P42679)
T8 construct: gene MATK
Outline: as §1

BIKE = target: T9, BIKE (Homo sapiens, UniProt Q9NSY1)
T9 construct: gene BMP2K
Outline: as §1

NEK3 = NEK3 (Homo sapiens, UniProt P51956)
Outline: as §1

MAP3K15 = MAP3K15 (Homo sapiens, UniProt Q6ZN16)
Outline: as §1

CIT = CIT (Homo sapiens, UniProt O14578)
Outline: as §1

Chain of FGR (P09769 whole entry): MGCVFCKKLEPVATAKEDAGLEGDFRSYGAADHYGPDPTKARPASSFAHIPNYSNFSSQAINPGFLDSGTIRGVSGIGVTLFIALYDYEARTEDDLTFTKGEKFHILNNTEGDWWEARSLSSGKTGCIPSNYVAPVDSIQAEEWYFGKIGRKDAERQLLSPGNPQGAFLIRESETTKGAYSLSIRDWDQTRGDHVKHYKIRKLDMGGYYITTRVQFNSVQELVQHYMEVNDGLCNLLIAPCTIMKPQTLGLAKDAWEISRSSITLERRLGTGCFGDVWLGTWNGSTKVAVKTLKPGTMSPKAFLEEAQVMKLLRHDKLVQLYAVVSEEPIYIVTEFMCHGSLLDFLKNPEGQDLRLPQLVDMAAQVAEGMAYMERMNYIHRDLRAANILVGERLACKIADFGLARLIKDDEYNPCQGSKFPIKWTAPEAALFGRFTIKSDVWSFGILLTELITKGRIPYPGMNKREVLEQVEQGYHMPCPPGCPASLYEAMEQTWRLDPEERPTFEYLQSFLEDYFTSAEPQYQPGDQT

With `C=CC(=O)Nc1cc(-n2c(=O)ccc3cnc4ccc(-n5cccn5)cc4c32)ccc1C` [CHMFL-BTK-11] the remaining binding at 1 µM (FGR) was 100%, the remaining binding at 1 µM (PYK2) was 100% and the remaining binding at 1 µM (MAP3K4) was 97%. It also gave a remaining binding at 1 µM [1] of 100%, a remaining binding at 1 µM (CDK9) of 96% and a remaining binding at 1 µM [2] of 100%. The remaining binding at 1 µM (MST2) was 97%, the remaining binding at 1 µM (CSNK1G2) was 100% and the remaining binding at 1 µM (NEK1) was 82%. It also gave a remaining binding at 1 µM (ROS1) of 94%, a remaining binding at 1 µM [3] of 85% and a remaining binding at 1 µM (MST1) of 100%. The remaining binding at 1 µM (SNARK) was 90%, the remaining binding at 1 µM (PLK4) was 56% and the remaining binding at 1 µM (CAMK1) was 98%. It also gave a remaining binding at 1 µM (EPHA2) of 88%, a remaining binding at 1 µM (BMPR1A) of 100% and a remaining binding at 1 µM (ROCK1) of 89%. The remaining binding at 1 µM (PRKD3) was 100%, the remaining binding at 1 µM (EPHB2) was 89% and the remaining binding at 1 µM (CTK) was 65%. It also gave a remaining binding at 1 µM (BIKE) of 91%, a remaining binding at 1 µM (NEK3) of 87% and a remaining binding at 1 µM (MAP3K15) of 80%. The remaining binding at 1 µM (CIT) was 98%.
